Data reported in paper PMC3189207, “DomPep—A General Method for Predicting Modular Domain-Mediated Protein-Protein Interactions” (PLoS ONE, 2011).
Read-outs that look alike come from different tables or passages of the source. Residues, ends and D or L forms follow the SMILES beside them.

Columns and labels:
Scrib PDZ-2 domain = biological target: T1, Scrib PDZ-2 domain (Homo sapiens, UniProt Q14160); assay: In-solution fluorescence polarization binding of peptides to Scrib PDZ2
T1 construct: ROC curves of DomPep prediction for the three Scrib PDZ-1/2/3 domains
T1 sequence (Q14160 862-950 limits assumed): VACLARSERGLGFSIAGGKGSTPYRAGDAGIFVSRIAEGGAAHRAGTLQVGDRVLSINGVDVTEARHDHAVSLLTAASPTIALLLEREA

Scrib PDZ-1 domain = biological target: T2, Scrib PDZ-1 domain (Homo sapiens, UniProt Q14160); assay: In-solution fluorescence polarization binding of peptides to Scrib PDZ1
T2 construct: ROC curves of DomPep prediction for the three Scrib PDZ-1/2/3 domains

[1] = Kd value of 100 µM applied as binding cutoff, NB without definition, read-out: Kd (µM) PDZ2
[2] = Kd value of 100 µM applied as binding cutoff, NB without definition, read-out: Kd (µM) PDZ1

T2 sequence (Q14160 728-815 limits assumed): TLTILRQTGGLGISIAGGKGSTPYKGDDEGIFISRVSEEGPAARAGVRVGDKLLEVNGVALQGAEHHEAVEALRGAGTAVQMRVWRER

Row | SMILES | Kd (Scrib PDZ-2 domain; read-out: Kd (µM) PDZ2, Kd value of 100 µM applied as binding cutoff, NB without definition) [µM] | Kd (Scrib PDZ-1 domain; read-out: Kd (µM) PDZ1, Kd value of 100 µM applied as binding cutoff, NB without definition) [µM] | Kd (Scrib PDZ-2 domain; [1]) [µM] | Kd (Scrib PDZ-1 domain; [2]) [µM]
1 | CSCC[C@H](NC(=O)[C@H](CC(C)C)NC(=O)[C@@H](NC(=O)[C@H](C)NC(=O)[C@H](CCSC)NC(=O)[C@H](CCCCN)NC(=O)[C@H](CC(N)=O)NC(=O)[C@@H]1CCCN1C(=O)[C@H](CC(N)=O)NC(=O)[C@@H](N)CC(C)C)[C@@H](C)O)C(=O)O [GLO1] (H-LNPNKMATLM-OH) | > 100 | > 100 | – | –
2 | CC(C)C[C@H](NC(=O)[C@H](CC(N)=O)NC(=O)[C@H](CCC(=O)O)NC(=O)CNC(=O)[C@@H]1CCCN1C(=O)[C@H](CCC(N)=O)NC(=O)[C@H](Cc1ccc(O)cc1)NC(=O)[C@H](CCC(N)=O)NC(=O)[C@@H]1CCCN1C(=O)[C@@H](N)CCC(=O)O)C(=O)O [SRC] (H-EPQYQPGENL-OH) | – | – | > 100 | > 100
3 | CC[C@H](C)[C@H](NC(=O)[C@H](CC(=O)O)NC(=O)[C@H](CC(N)=O)NC(=O)[C@H](CC(C)C)NC(=O)[C@H](C)NC(=O)[C@H](CC(N)=O)NC(=O)[C@@H](N)CC(=O)O)C(=O)N[C@H](C(=O)N[C@@H](CO)C(=O)N[C@@H](CC(C)C)C(=O)O)[C@@H](C)O [TPM2] (H-DNALNDITSL-OH) | – | – | > 100 | > 100
4 | CC(C)C[C@H](NC(=O)[C@@H]1CCCN1C(=O)[C@@H](NC(=O)[C@H](CCC(=O)O)NC(=O)[C@H](CCCCN)NC(=O)[C@H](CCCCN)NC(=O)[C@H](Cc1ccc(O)cc1)NC(=O)[C@H](CC(N)=O)NC(=O)[C@H](Cc1ccccc1)NC(=O)[C@@H](N)CO)[C@@H](C)O)C(=O)O [ARD50] (H-SFNYKKETPL-OH) | – | – | 34.3 | 23.6
5 | CC(C)C[C@H](NC(=O)[C@H](Cc1ccc(O)cc1)NC(=O)[C@H](CO)NC(=O)CNC(=O)[C@H](CO)NC(=O)[C@@H](N)Cc1c[nH]cn1)C(=O)N[C@H](C(=O)N[C@H](C(=O)N[C@@H](CO)C(=O)N[C@H](C(=O)O)C(C)C)[C@@H](C)O)C(C)C [APC] (H-HSGSYLVTSV-OH) | – | – | 9.5 | 12.3
6 | CC[C@H](C)[C@H](NC(=O)[C@@H](NC(=O)[C@H](CCC(=O)O)NC(=O)[C@H](CO)NC(=O)[C@@H]1CCCN1C(=O)[C@H](CCC(N)=O)NC(=O)[C@H](C)NC(=O)[C@H](CO)NC(=O)[C@@H](N)CO)[C@@H](C)O)C(=O)N[C@@H](CC(C)C)C(=O)O [ZNF654] (H-SSAQPSETIL-OH) | – | – | 32.1 | > 100
7 | CSCC[C@H](NC(=O)[C@H](CCCNC(=N)N)NC(=O)[C@H](CCCCN)NC(=O)[C@H](CCC(=O)O)NC(=O)[C@H](C)NC(=O)[C@@H](N)Cc1ccc(O)cc1)C(=O)N[C@@H](CC(C)C)C(=O)N[C@H](C(=O)N[C@@H](CCC(=O)O)C(=O)N[C@H](C(=O)O)C(C)C)[C@@H](C)O [KCNA6] (H-YAEKRMLTEV-OH) | – | – | > 100 | > 100
8 | CC[C@H](C)[C@H](NC(=O)[C@@H]1CCCN1C(=O)[C@H](Cc1c[nH]cn1)NC(=O)[C@@H](NC(=O)[C@@H](N)Cc1ccccc1)C(C)C)C(=O)N[C@@H](CC(C)C)C(=O)N[C@@H](CCC(N)=O)C(=O)N[C@@H](CO)C(=O)N[C@@H](C)C(=O)N[C@H](C(=O)O)C(C)C [PRKCA] (H-FVHPILQSAV-OH) | – | – | 46 | 17.4
9 | CC(C)C[C@H](NC(=O)[C@H](CS)NC(=O)[C@H](Cc1c[nH]cn1)NC(=O)[C@H](CC(C)C)NC(=O)[C@H](C)NC(=O)[C@H](CCC(=O)O)NC(=O)[C@H](CC(C)C)NC(=O)[C@H](CCC(=O)O)NC(=O)[C@@H]1CCCN1C(=O)[C@@H](N)CC(=O)O)C(=O)O [EPHA8] (H-DPELEALHCL-OH) | – | – | 24.9 | > 100
10 | CC[C@H](C)[C@H](NC(=O)[C@H](CO)NC(=O)[C@H](CO)NC(=O)[C@H](CCC(=O)O)NC(=O)[C@H](C)NC(=O)[C@H](CO)NC(=O)[C@H](C)NC(=O)[C@@H](NC(=O)[C@H](CC(=O)O)NC(=O)[C@@H](N)C(C)C)[C@@H](C)CC)C(=O)O [TANK] (H-VDIASAESSI-OH) | – | – | > 100 | 102
11 | CC(C)C[C@H](NC(=O)[C@H](CO)NC(=O)[C@H](CO)NC(=O)[C@H](CCC(=O)O)NC(=O)[C@H](Cc1ccc(O)cc1)NC(=O)[C@H](CO)NC(=O)[C@@H](NC(=O)[C@H](C)NC(=O)[C@@H](NC(=O)[C@@H](N)CCCCN)C(C)C)[C@@H](C)O)C(=O)O [STK29] (H-KVATSYESSL-OH) | – | – | > 100 | > 100
12 | CC[C@H](C)[C@H](NC(=O)[C@H](CC(C)C)NC(=O)[C@H](CCC(N)=O)NC(=O)[C@H](CCSC)NC(=O)[C@H](CC(N)=O)NC(=O)[C@H](Cc1ccccc1)NC(=O)[C@@H](N)CO)C(=O)N[C@@H](CO)C(=O)N[C@@H](CCC(N)=O)C(=O)N[C@H](C(=O)O)C(C)C [FAM126B] (H-SFNMQLISQV-OH) | – | – | > 100 | > 100
13 | CC(C)C[C@H](NC(=O)[C@@H](NC(=O)[C@@H](NC(=O)[C@H](CO)NC(=O)[C@@H]1CCCN1C(=O)[C@H](CC(C)C)NC(=O)[C@H](CCCCN)NC(=O)[C@H](CCCNC(=N)N)NC(=O)[C@@H](NC(=O)[C@@H](N)CCCNC(=N)N)C(C)C)[C@@H](C)O)[C@@H](C)O)C(=O)O [RPS6KA1] (H-RVRKLPSTTL-OH) | – | – | > 100 | > 100
14 | CC(C)C[C@H](NC(=O)[C@H](CC(=O)O)NC(=O)[C@@H](NC(=O)[C@H](CO)NC(=O)[C@H](C)NC(=O)[C@H](CCCCN)NC(=O)[C@H](C)NC(=O)[C@@H](NC(=O)[C@H](CC(C)C)NC(=O)[C@@H](N)C(C)C)[C@@H](C)O)[C@@H](C)O)C(=O)O [LPP] (H-VLTAKASTDL-OH) | – | – | > 100 | 24.2
15 | CC(C)C[C@H](NC(=O)[C@H](CO)NC(=O)[C@@H](NC(=O)[C@H](CCC(=O)O)NC(=O)[C@H](CCC(=O)O)NC(=O)[C@H](CS)NC(=O)[C@@H](NC(=O)[C@H](CCCNC(=N)N)NC(=O)[C@@H](NC(=O)[C@@H]1CCCN1)C(C)C)C(C)C)[C@@H](C)O)C(=O)O [FAM105B] (H-PVRVCEETSL-OH) | – | – | 17.6 | 1.9
16 | CC(C)C[C@H](NC(=O)[C@@H](N)C(C)C)C(=O)N[C@@H](Cc1ccc(O)cc1)C(=O)N1CCC[C@H]1C(=O)N[C@@H](CCCNC(=N)N)C(=O)N[C@@H](CCC(=O)O)C(=O)NCC(=O)N[C@H](C(=O)N[C@@H](CCC(=O)O)C(=O)N[C@H](C(=O)O)C(C)C)[C@@H](C)O [FOXl1] (H-VLYPREGTEV-OH) | – | – | 24.7 | > 100
17 | CC(C)C[C@H](NC(=O)[C@@H](NC(=O)CNC(=O)[C@H](CC(N)=O)NC(=O)[C@H](CCCCN)NC(=O)[C@H](CO)NC(=O)[C@H](CC(=O)O)NC(=O)[C@H](Cc1ccc(O)cc1)NC(=O)[C@@H](N)CCCNC(=N)N)[C@@H](C)O)C(=O)N[C@H](C(=O)O)C(C)C [C11orf52] (H-RYDSKNGTLV-OH) | – | – | > 100 | > 100
18 | CC(C)C[C@H](NC(=O)[C@H](CO)NC(=O)[C@@H](NC(=O)[C@H](CC(=O)O)NC(=O)[C@@H](NC(=O)[C@H](CC(C)C)NC(=O)[C@H](CCC(N)=O)NC(=O)CNC(=O)[C@@H]1CCCN1C(=O)[C@@H](N)CCC(N)=O)C(C)C)[C@@H](C)O)C(=O)O [ANKS4B] (H-QPGQLVDTSL-OH) | – | – | > 100 | > 100
19 | CC(C)C[C@H](NC(=O)[C@H](CCCNC(=N)N)NC(=O)[C@@H]1CCCN1C(=O)[C@H](Cc1c[nH]cn1)NC(=O)[C@H](CO)NC(=O)[C@@H]1CCCN1)C(=O)N[C@@H](CCC(N)=O)C(=O)N[C@H](C(=O)N[C@@H](Cc1c[nH]cn1)C(=O)N[C@H](C(=O)O)C(C)C)[C@@H](C)O [KIRREL2] (H-PSHPRLQTHV-OH) | – | – | > 100 | > 100
20 | CSCC[C@H](NC(=O)CN)C(=O)N[C@@H](CCCCN)C(=O)N[C@@H](CCCNC(=N)N)C(=O)N[C@@H](CC(C)C)C(=O)N[C@H](C(=O)N[C@@H](CO)C(=O)N[C@H](C(=O)N[C@@H](CCCNC(=N)N)C(=O)N[C@@H](CC(C)C)C(=O)O)[C@@H](C)O)[C@@H](C)O [RPS6KA2] (H-GMKRLTSTRL-OH) | – | – | 62.7 | > 100
21 | CSCC[C@H](NC(=O)CNC(=O)[C@H](CC(N)=O)NC(=O)[C@@H](NC(=O)[C@H](CC(C)C)NC(=O)[C@H](CCC(N)=O)NC(=O)[C@@H](N)C(C)C)C(C)C)C(=O)N[C@H](C(=O)N1CCC[C@H]1C(=O)N[C@@H](CC(C)C)C(=O)O)C(C)C [EPHA5] (H-VQLVNGMVPL-OH) | – | – | 75.7 | > 100
22 | CC[C@H](C)[C@H](NC(=O)[C@H](CCC(N)=O)NC(=O)[C@@H](NC(=O)[C@@H](NC(=O)[C@H](Cc1c[nH]cn1)NC(=O)[C@H](CCC(N)=O)NC(=O)CNC(=O)[C@@H]1CCCN1C(=O)[C@H](C)NC(=O)[C@@H]1CCCN1)[C@@H](C)O)[C@@H](C)O)C(=O)O [STK16] (H-PAPGQHTTQI-OH) | – | – | > 100 | > 100
23 | CC(C)C[C@H](NC(=O)[C@H](CC(N)=O)NC(=O)[C@@H](NC(=O)[C@H](CCC(=O)O)NC(=O)[C@H](CC(=O)O)NC(=O)[C@H](Cc1c[nH]c2ccccc12)NC(=O)[C@H](C)NC(=O)[C@@H]1CCCN1C(=O)[C@H](CC(=O)O)NC(=O)[C@@H](N)CC(N)=O)[C@@H](C)O)C(=O)O [b-PIX] (H-NDPAWDETNL-OH) | – | – | 16.8 | 5.3
24 | CC(C)C[C@H](NC(=O)[C@H](CCC(=O)O)NC(=O)[C@@H](NC(=O)[C@H](CC(=O)O)NC(=O)[C@H](Cc1ccc(O)cc1)NC(=O)[C@H](CCCNC(=N)N)NC(=O)[C@H](C)NC(=O)[C@H](CO)NC(=O)[C@@H](N)CCC(N)=O)[C@@H](C)O)C(=O)O [ZO2] (H-QSARYDTEL-OH) | – | – | > 100 | 16
25 | CSCC[C@H](NC(=O)[C@@H](N)C(C)C)C(=O)N[C@@H](CCCNC(=N)N)C(=O)N[C@@H](CC(C)C)C(=O)N[C@@H](CCC(N)=O)C(=O)N[C@@H](CO)C(=O)N[C@@H](CCC(=O)O)C(=O)N[C@H](C(=O)N[C@@H](CO)C(=O)N[C@H](C(=O)O)C(C)C)[C@@H](C)O [VANGL2] (H-VMRLQSETSV-OH) | – | – | – | 21.6
